Test results taken from article PMC10803289, “Transport and inhibition mechanism of the human SGLT2–MAP17 glucose transporter” (Nature Structural & Molecular Biology, 2023).
Where “and” joins values, the source holds several entries; their conditions need not be identical. Equal values may be shown once.

Target: T1, hSGLT2 D201A (Homo sapiens, UniProt P31639, D201A)
T1 sequence (P31639 1-672 D201A): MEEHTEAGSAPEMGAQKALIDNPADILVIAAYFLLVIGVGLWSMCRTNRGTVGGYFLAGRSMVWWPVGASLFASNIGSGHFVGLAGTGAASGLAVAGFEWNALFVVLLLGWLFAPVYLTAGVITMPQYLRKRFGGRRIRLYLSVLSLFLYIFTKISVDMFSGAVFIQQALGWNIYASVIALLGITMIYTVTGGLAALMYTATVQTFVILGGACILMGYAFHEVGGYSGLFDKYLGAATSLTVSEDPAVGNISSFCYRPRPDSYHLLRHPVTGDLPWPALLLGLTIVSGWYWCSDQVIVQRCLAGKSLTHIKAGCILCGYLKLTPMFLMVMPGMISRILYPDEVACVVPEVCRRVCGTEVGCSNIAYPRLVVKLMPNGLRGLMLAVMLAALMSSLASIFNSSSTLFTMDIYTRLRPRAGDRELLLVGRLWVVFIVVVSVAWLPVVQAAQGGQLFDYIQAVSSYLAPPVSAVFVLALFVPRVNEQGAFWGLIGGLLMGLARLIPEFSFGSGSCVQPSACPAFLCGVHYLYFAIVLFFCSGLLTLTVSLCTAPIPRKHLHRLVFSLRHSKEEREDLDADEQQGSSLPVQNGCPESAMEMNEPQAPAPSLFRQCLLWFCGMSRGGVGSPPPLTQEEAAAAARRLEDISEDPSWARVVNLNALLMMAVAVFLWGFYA
T1 sequence (Q13113 1-114 partner): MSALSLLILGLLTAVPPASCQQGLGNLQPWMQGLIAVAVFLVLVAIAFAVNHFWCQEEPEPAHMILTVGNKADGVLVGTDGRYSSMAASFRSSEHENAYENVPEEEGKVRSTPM
Test: α-MG uptake in HEK293 cells, D201A mutant
Assay type: cell-based
Parameters: expressed in transfected cells
Source text: hSGLT2 complementary DNA and human MAP17 cDNA were synthesized and codon-optimized for expression in human cell lines. Both cDNAs were cloned into the pcDNA3.4 vector. The hSGLT2 sequence was fused with an N-terminal signal sequence from human trypsinogen 1, a His10 tag, and sfGFP, followed by a human rhinovirus 3C protease (HRV3C protease) recognition site. Point mutations were introduced into this construct using site-directed mutagenesis. These plasmids were utilized for all experimental procedures conducted in this study. […]
Cell lysates were deproteinized by adding acetonitrile containing candesartan as the internal standard. The α-MG concentration was quantified via liquid chromatography–tandem mass spectrometry (LC–MS/MS) using the internal standard method.
Cellular protein content was determined using a bicinchoninic acid protein assay kit (Thermo Fisher Scientific). The uptake of α-MG was expressed as the ratio of concentration in the cells (in pmol per mg protein) to concentration in the medium (in pmol μl^−1); this is known as the cell-to-medium ratio (in μl per mg protein).
In the inhibition study, the cell-to-medium ratio of cells transfected with the empty vector was used as the background. The specific α-MG uptake was calculated by subtracting this background from the total cell-to-medium ratio and normalized to the uptake achieved without the inhibitor. […]

CO[C@H]1O[C@H](CO)[C@@H](O)[C@H](O)[C@H]1O [α-MG, α-methyl-D-glucopyranoside]
uptake of α-MG (in words) (D201A mutant): No clear uptake | α-MG uptake (Fig. 3h, D201A): 6.25 μL/mg-protein and 10.67 μL/mg-protein and 6.52 μL/mg-protein
